Data set [1] in a line: Laundry washing cycles (AATCC Test Method 61, Test 2A), chlorine loading after washing. The format is physicochemical. The following applies: for Average Chlorine Loading %: cotton. How it is done:
Finally, a wash test was performed on swatches of cotton containing the monomer 3-triethoxysilylpropyl-5,5-dimethylhydantoin coating and the polysiloxane coating, each chlorinated and unchlorinated, for comparison purposes. Two treatment baths were prepared, one containing an 8% solution of 3-triethoxysilylpropyl-5,5-dimethylhydantoin in a 50% solution of ethanol in water, the other containing an 8% solution of siloxane polymer prepared as described above in a 66.7% solution of ethanol in water. Identical cotton swatches were soaked in the two baths for 2.5 minutes at ambient temperature, cured in air at 130° C. for 20 minutes, soaked in 1.5% liquid detergent at ambient temperature for 15 minutes, rinsed thoroughly with water, and dried in air at 50° C. for 30 minutes. Then one-half of the swatches of each type were chlorinated by soaking them in 5% CLOROX at ambient temperature for 45 minutes. These chlorinated samples were rinsed thoroughly with water and dried in air at 50° C. for 30 minutes to remove all occluded free chlorine. Iodometric/thiosulfate titrations were performed on representative samples to determine initial chlorine loadings. The average chlorine loading for the silane monomer-coated samples was 0.61%; for the siloxane polymer-coated samples, the average chlorine loading was 0.40%. Then all types of coated swatches were subjected to laundry washing cycles using AATCC Test Method 61 (Test 2A Procedure). Samples were evaluated after 5, 10, and 50 washing cycles for retention of the coatings. Those samples not chlorinated before washing were chlorinated by the procedure described above in order to assess how much chlorine could be loaded after variable numbers of washing cycles. Those chlorinated before washing were divided into two groups with half being assessed for chlorine loading without rechlorination, the other half being rechlorinated and then assessed for chlorine loading. Three observations are clearly evident from the data in Table 3. First, both the silane and the siloxane coatings are partially lost upon successive washings. Second, prechlorination reduces the rate of loss, probably due to increasing the hydrophobicity of the surface, thus reducing the rate of hydrolysis loss of the siloxane coatings. Third, the siloxane coating, which is not chlorinated to as high a level as the silane one upon initial chlorination, is lost at a slower rate than is the silane coating. For all of the coatings, at least partial biocidal efficacy would be regenerated upon rechlorination after 50 washing cycles. Most probably, a low concentration of bleach added to washing cycles should maintain biocidal activity of the cotton material for the lifetime of the material.
Finally, 100% cotton fabric swatches were tested. In this case 10 mL of the refluxed solution of polymer (the solid was not isolated) were mixed with 100 mL of a 50% ethanol/50% water solution in a beaker. The cotton swatches (7 g) were soaked in the solution for 3 minutes, then partially dried in air at ambient temperature, and then cured at 150° C. for 30 minutes. After soaking in 5% CLOROX for 20 minutes, the swatches were rinsed and dried at ambient temperature. The average chlorine loading of several swatches was determined by iodometric/thiosulfate titration to be 0.438% Cl. Then the other treated swatches were subjected to laundry washing cycles using AATCC Test Method 61 (Test 2A Procedure) followed by analytical determination of chlorine loading as a function of the number of wash cycles. After 5, 10, and 50 wash cycles the chlorine loadings averaged 0.282%, 0.279%, and 0.165%, respectively.

The subject of data set [2] is spores of Bacillus subtilis. Nature of the data set: Anti Bacillus spore activity of chlorine charged coated surfaces. The data set is classed as cell-based. As to conditions: 96 hours. How it is done: Soft and hard surfaces were treated by exposure to solutions of 3-triethoxysilylpropyl-5,5-dimethylhydantoin, prepared as described in Example 1, and charged with chlorine as described in Example 11. Challenge inocula for the detection of activity versus bacterial spores were prepared from suspensions of spores of Bacillus subtilis. Recovery of viable organisms from challenged surfaces was done on TSA plates, and enumeration was accomplished by the plate dilution method.

For the compound `CCO[Si](CCCN1C(=O)NC(C)(C)C1=O)(OCC)OCC` [3-triethoxysilylpropyl-5,5-dimethylhydantoin], the bound chlorine retained entry in data set [1] (cotton cloth, after 50 wash cycles) is “about 34%”. Further, the “Average Chlorine Loading %” value in data set [1] (chlorination before washing No, after washing Yes, 5 washing cycles) was 0.26%; in data set [1] (chlorination before washing No, after washing Yes, 10 washing cycles), 0.15%; in data set [1] (chlorination before washing No, after washing Yes, 50 washing cycles) it was 0.03%; in data set [1] (chlorination before washing Yes, after washing No, 5 washing cycles), 0.42%; in data set [1] (chlorination before washing Yes, after washing No, 10 washing cycles), 0.41%; in data set [1] (chlorination before washing Yes, after washing No, 50 washing cycles) it was 0.10%. Besides, the “Average Chlorine Loading %” value in data set [1] (chlorination before washing Yes, after washing Yes, 5 washing cycles) was 0.394%; in data set [1] (chlorination before washing Yes, after washing Yes, 10 washing cycles), 0.388%; in data set [1] (chlorination before washing Yes, after washing Yes, 50 washing cycles) it was 0.133%. The “reduction in viable B. subtilis spore counts” value is more than 5 logs in data set [2] (cellulose sponge); more than 2 logs in data set [2] (cotton and polyester); “up to 4 logs” in data set [2] (hard surfaces (marble, vinyl, porcelain)).

The values above are taken from patent US20080003438A1, “Heterocyclic siloxanes for use in biocidal coatings and materials” (Auburn University, priority 2002, published 2008).
